{"source": "patent US20050043534A1", "about": "“Modulators of ceramidase and methods of used based thereon” (priority 2001, published 2005)", "key": {"[1]": {"system": "MCF7 human breast carcinoma cells", "test": "MTT cell viability assay, MCF7 cells", "type": "cell-based", "conditions": "18 hours treatment", "method": "The cells were contained at 37° C. in a humidified atmosphere containing 5% CO2 overnight. On Day 2, the cells were treated with the compound of interest which was dissolved in 100% ethanol. […] The control is a sample without the compound of interest."}, "[2]": {"system": "human embryonal kidney cells HEK-293", "test": "MTT cell viability assay, HEK-293 cells", "type": "cell-based", "conditions": "18 hours treatment", "method": "MCF7 human breast carcinoma cells (ATCC No. HTB-22) and human embryonal kidney cells HEK-293 (ATCC No. CRL-1573) were purchased from American Type Culture Collection.\nTo investigate the effect of the compound of interest on each of these cell lines, on Day 1, about 50 μL (about 5,000 cells) of the MCF7 or HEK-293 cells were plated down into 96-well plate which contains RPMI 1640 1× (MOD) media (purchased from Media Tech) containing L-glutamine and 10% fetal calf serum (purchased from Gibco). The cells were contained at 37° C. in a humidified atmosphere containing 5% CO2 overnight. On Day 2, the cells were treated with the compound of interest which was dissolved in 100% ethanol. To facilitate dissolution of the compound of interest, a 98% ethanol/2% dodecane can be used as the solvent instead of 100% ethanol. […] The cells were treated with the compound of interest for 18 hours after which the effect on cell viability was measured by MTT assay (Mossman, T. (1983) J. Immuno. Meth. 65, 55-63; and Berridge, M. V. and Tan, A. S. (1993) Archives of Biochemistry & Biophysics, 303, 474-482) as described below.\nMTT Assay: • (1) Add to each well 25 μL of MTT stock solution (5 mg/mL in PBS); • (2) Incubate for 5 hours; • (3) Add 100 μL of lysing buffer (20% SDS (w/v), 50% N,N-Dimethyl formamide (v/v)) and stand overnight; • (4) read plate at 595 nm."}, "[3]": {"biological_target": "mitochondrial ceramidase (Rattus norvegicus, UniProt Q91XT9)", "sequence (Q91XT9 whole entry)": "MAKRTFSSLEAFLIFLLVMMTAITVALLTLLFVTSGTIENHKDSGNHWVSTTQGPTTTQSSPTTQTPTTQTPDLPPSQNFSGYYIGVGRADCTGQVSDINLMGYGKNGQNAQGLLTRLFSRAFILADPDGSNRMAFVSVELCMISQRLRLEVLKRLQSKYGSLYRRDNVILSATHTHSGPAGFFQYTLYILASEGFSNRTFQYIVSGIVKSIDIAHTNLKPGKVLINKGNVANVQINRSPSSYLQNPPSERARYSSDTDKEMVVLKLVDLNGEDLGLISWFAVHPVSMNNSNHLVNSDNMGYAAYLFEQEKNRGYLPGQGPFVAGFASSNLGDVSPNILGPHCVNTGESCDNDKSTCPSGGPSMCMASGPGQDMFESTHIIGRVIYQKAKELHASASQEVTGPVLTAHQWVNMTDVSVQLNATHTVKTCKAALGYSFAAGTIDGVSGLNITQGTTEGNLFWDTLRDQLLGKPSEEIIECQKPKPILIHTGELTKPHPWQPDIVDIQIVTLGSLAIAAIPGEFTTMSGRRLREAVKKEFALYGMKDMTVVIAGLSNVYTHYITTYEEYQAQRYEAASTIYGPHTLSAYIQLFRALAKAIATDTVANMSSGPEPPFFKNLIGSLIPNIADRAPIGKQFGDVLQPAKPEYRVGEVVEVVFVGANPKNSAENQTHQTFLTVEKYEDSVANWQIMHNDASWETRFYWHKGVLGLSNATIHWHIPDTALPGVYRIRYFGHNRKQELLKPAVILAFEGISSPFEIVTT", "test": "mitochondrial ceramidase (mt-CDase) activity, radioactive assay or HPLC assay", "type": "biochemical", "conditions": "for effect on mt-CDase activity (in words): concentrations as stated at the place", "method": "The enzymatic activity of mitochondrial ceramidase was determined by either one of the two following methods:\na. Radioactive assay: The mt-CDase activity was determined by measuring the release of radioactive fatty acid from tritiated ceramide ([^3H]-C16-Cer), labeled in the acyl chain. Briefly, organic solutions of ceramide and its analogues were initially mixed together, solvents were completely evaporated under nitrogen, then the dried lipids were dispersed in Triton-X 100 by sonication and vigorous vortexing. The reaction assay contained (in a final volume of 200 μl): enzyme (5-10 ng) and 10 nmoles of tritiated C16-ceramide (1×10^5 dpm) delivered in 100 μl of 1% Triton X-100 micelles in a glycine buffer pH 9.5 (200 mM).\nb. HPLC-assay: The Mt-CDase activity was also determined by measuring the amount of sphingosine released. Basically the assay was initially the same as described above but using non-radioactive ceramide. The reaction was stopped with 800 μl of chloroform: methanol (2:1 v/v) mixture followed by the addition of phyto-sphingosine (0.5 nmoles) and dihydro-sphingosine (1 nmole) as internal standard and carrier, respectively. The reaction mix was then extracted with NaOH (50 μl, 1N), and the lower chloroform layer containing the sphingosine was further washed with water (100 μl) and dried. The released sphingosine was quantified as the ortho-phthaldehyde (OPA) derivatives as described (30). […] The solvent system was methyl alcohol: potassium phosphate buffer (5 mM), pH 7.0 (90:10 v/v) at a flow rate of 1 ml/min. […] Activity was determined relative to the phytosphingosine OPA peak.\nThe effects of various compounds of the invention which are stereochemical and structural analogues of ceramide and sphingosine on mt-CDase were investigated. […] Results were expressed as percent of the control ceramidase activity."}, "[4]": {"system": "mouse fibroblast cells, L929", "test": "TNFα-induced PGE2 release from L929 cells", "type": "cell-based", "conditions": "preliminary data", "excerpt": "Interleukin-1 is a major inducer of inflammation and TNF is an important regulator of the reaction. Both cytokines can activate ceramidase, and thus inhibiting the activity of ceramidase can result in an anti-inflammatory effect. This may involve the prevention of the formation of sphingosine and sphingosine phosphate which have pro-inflammatory effects. Also, inhibition of ceramidase may prevent the hyperproliferation of immune cells that are important for inflammation. […] The release of PGE2 is also shown to be inhibited by D-(N-myristolyamino)-1-phenyl-1-propanol), D-MAPP, which is an inhibitor of one of the ceramidase. This observation may be important for inhibiting inflammatory reactions that occur in conditions, such as but not limited to rheumatoid arthritis. Thus, it is possible to treat or prevent inflammation by regulating the level of cellular ceramide using the method of the invention. As discussed above, ceramide level can be increased by administering compounds of the present invention that can inhibit mitochondrial ceramidase."}}, "note": "Where “and” joins values, the source holds several entries; their conditions need not be identical. Identical values can stand only once."}
{"molecule": "CCCCCCCCCCCCC/C=C/[C@@H](O)[C@H](CO)NC(=O)NCCCCCCCCCCCCCCCC", "note": "[Compound C16-urea-Cer, (2S, 3R,4E)-N-[2-(1,3-Dihydroxy-4E-octadecene)]-N′-hexadecane-urea]", "values": [{"measurement": "effect on cell growth and proliferation (in words)", "setting": "[1]", "value": "potent inhibitor of cell growth and proliferation"}, {"measurement": "effect on cell growth and proliferation (in words)", "setting": "[2]", "value": "potent inhibitor of cell growth and proliferation"}, {"measurement": "melting point", "value": "105 to 106", "unit": "°C"}, {"measurement": "hydrolysis by mt-CDase (substrate or not, in words)", "setting": "[3]", "value": "not a substrate"}, {"measurement": "Estimated IC50 (mole %)", "setting": "[3]; Table 1, ceramide analogues, hydrolysis of D-erythro-C16 or C18-ceramide at 0.625 mole % (50 μM)", "value": 0.33, "unit": "mole %"}, {"measurement": "effect on mt-CDase activity (in words)", "setting": "[3]", "value": "potent inhibitor"}, {"measurement": "inhibition at 50 µM", "setting": "[3]; inhibitor at 0.625 mole % (50 μM), read-out: inhibition (maximal inhibition) of mt-CDase activity", "value": 75, "unit": "%"}, {"measurement": "IC50", "setting": "[3]; substrate D-erythro-ceramide 50 μM", "value": 25, "unit": "µM"}, {"measurement": "IC50 (50% inhibition of mt-CDase activity)", "setting": "[3]; substrate D-erythro-ceramide 0.625 mole %", "value": "0.33 mole % and 0.31 mole %"}, {"measurement": "type of inhibition (double reciprocal analysis: Km increased, Vmax unchanged)", "setting": "[3]; varying D-erythro-ceramide concentration", "value": "competitive inhibitor"}]}
{"molecule": "CCCCCCCCCCCCCC(=O)NC(C)C(O)c1ccccc1", "note": "[D-MAPP]", "values": [{"measurement": "release of PGE2", "setting": "[4]", "value": "inhibited"}]}
{"molecule": "CCCCCCCCCCCCCCCC(=O)O", "note": "[palmitic acid, reference compound]", "values": [{"measurement": "effect on mt-CDase activity (in words)", "setting": "[3]", "value": "no significant variation"}]}
{"molecule": "ceramide [reference compound]", "values": [{"measurement": "Km of hydrolysis", "setting": "[3]; ceramide as substrate", "value": 1.3, "unit": "mole %"}]}
{"molecule": "dihydroceramide [reference compound]", "values": [{"measurement": "hydrolysis by mt-CDase (substrate or not, in words)", "setting": "[3]", "value": "significant loss of activity as a substrate"}]}
